Test results published in patent US8685976B2, “Cell adhesion promoting agent and method of promoting cell adhesion” (Kyoto University, priority 2008, dated 2014).

Columns and labels:
[1] = tested on: focal adhesion kinase (FAK); assay: Western blotting, FAK activation; format: cell-based, human; settings: Jurkat
Experimental: Jurkat cells were treated with adhesamine (6 μM) in a serum-poor culture medium (0.1% FBS) for the indicated periods of time. The treated cell lysates were Western blotted with antibodies against FAK phospho-tyrosine^397 (pFAK), FAK, ERK1/2 phospho-threonine^202/tyrosine^204 (pERK) or ERK. In (B), Jurkat cells were incubated for 5 hours with varied concentrations of adhesamine or poly-L-lysine. The cell lysates were Western blotted with antibodies against FAK phospho-tyrosine^397 or FAK. […] The concentration of adhesamine (1) was 6 μM.
Jurkat cells were maintained in an RPMI medium containing 10% FBS. 5-6 million Jurkat cells were dispensed to a well of a 6-well plate in a final volume of 2 mL, and then incubated at 37° C. for 0-5 hours in the presence of adhesamine or poly-L-lysine. Non-adherent cells were removed and pelleted, and the remaining adherent cells were lysed in a 125 mM Tris-HCl buffer (pH 6.8) containing 4% SDS, 10% glycerol, 0.006% bromophenol blue, and 1.8% β-mercaptoethanol. The adherent cell homogenate was combined with pelleted nonadherent cells from the same well, and the combined sample was boiled for 5 minutes. The samples were separated by SDS-PAGE and electroblotted onto a nitrocellulose membrane. The membranes were blocked in 1% BSA and incubated with primary antibody, and then with horseradish peroxidase-conjugated secondary antibody. The blots were developed using the enhanced chemiluminescence technique.

HepG2 cells = assay: Focal adhesion formation, anti-vinculin staining; format: cell-based; settings: HepG2, immediately after seeding
Experimental: Trypsin-treated HepG2 cells were plated for 3 hours onto coverslips to which adhesamine was added; fixed thereon; and stained with anti-vinculin antibody and Alexa Fluor 488 goat anti-mouse IgG.
The cells were also stained with an antibody against vinculin, a marker of focal adhesion. […] These observations indicate that the adhesamine-induced contacts of the cells to the plates initiate a normal schedule of cell adhesion^(2,3).

Jurkat cells = assay: Cell growth assay (WST-8), Jurkat; format: cell-based, human
Experimental: In (A) and (B), the cell growth was determined at 24, 48, and 72 hours after the addition of adhesamine (1) (6 μM). The cell growth in the presence of 1% (v/v) DMSO was assigned a value of 100%. The data shown are means±SD for a minimum of three experiments. (C) to (F) show the rearrangement of actin filaments in HepG2 and Jurkat cells in the presence of adhesamine (6 μM). Brightfield images (C and D) and confocal images (E and F) are shown. HepG2 (C and E) or Jurkat (D and F) cells were plated for 5 hours or 3 hours, respectively, and actin cytoskeletal was visualized using rhodamine-labeled phalloidin.
1 μL DMSO solution of adhesamine (1) was added to 96-well plate at a concentration of 600 μM. […] After incubation for indicated time, the cell viability was measured using Cell Counting Kit-8 (Dojindo Molecular Technologies, Inc., Gaithersburg, Md.), which contains a tetrazolium salt (WST-8) that produces a water-soluble formazan dye by NADH dehydrogenases in living cells. […] The optical density (OD) of the solution was read by a microplate reader, using a test wavelength at 450 nm and a reference wavelength at 650 nm. […] Each assay was conducted in triplicate, and the means and standard derivations were calculated for a minimum of three independent experiments.

`CSc1nc(Cl)c(C=O)c(N2CC[N+]3(CC2)CC[N+]2(CCN(c4nc(SC)nc(Cl)c4C=O)CC2)CC3)n1` [adhesamine] was tested, and the “time after stimulation at which FAK phosphorylation was demonstrated” value ([1]; 6 μM, serum-poor medium) was 5 h, the “concentration sufficient to phosphorylate FAK” value ([1]; 5 hours) was 5 µg/mL and the vinculin-containing focal adhesions (HepG2 cells) was “Vinculin-containing focal adhesions were observed”. The cytotoxicity (Jurkat cells; 6 μM) was “no obvious cytotoxicity” and the “growth of the cells” value (Jurkat cells; 6 μM, 24, 48, 72 hours, vs 1% DMSO) was “slightly enhanced”.
